The values below come from US9107870B2, “Angiotensin peptides in treating marfan syndrome and related disorders” (TARIX PHARMACEUTICALS LTD, priority 2013, dated 2015).

“Also recorded” adds a separate entry of the source.

The subject of assay [1] is Fbn1^C1039G/+ mice (Marfan mice). In words: Aortic root growth in Marfan mice by in vivo echocardiography. As to conditions: 500 μg/kg/day subcutaneous daily for 60 days, compared to Marfan mice treated with placebo, FIG. 1. An excerpt:
(§1) In this Example, a total of 20 mice were used, with 8 mice being wild-type and 12 being Fbn1^C1039G+ mice, also referred to as “Marfan mice”, that are each […] for a fibrillin-1 (Fbn1) allele encoding a cysteine substitution, Cys1039Gly (C1039G), in an epidermal growth factor-like domain of Fbn1 (Fbn1^C1039G/+).
The Fbn1C1039G mice are a well-accepted model of Marfan Syndrome and the Fbn1 mutation is the most common class of mutation causing Marfan Syndrome. Typically, the aortic root in Fbn1C1039G mice undergoes progressive dilatation, evident as early as 2 weeks of age. […] This observed size difference generally becomes more pronounced over time. […] In addition, Fbn1C1039G mice show increased collagen deposition, which is an indirect marker of increased TGF-β signaling.
In order to determine the effects of angiotensin (1-7) peptides, here TXA127, on the normal course of disease development, both wild-type and Marfan mice were each separated into two groups once the mice reached 2 months of age. […]
The primary endpoint of this study was degree of aortic growth observed over the 60 day treatment period, as measured by in vivo echocardiography. […]

Another assay has as its system wild-type mice. In words: Aortic root growth in wild-type mice by in vivo echocardiography. As to conditions: 500 μg/kg/day subcutaneous daily for 60 days, compared to wild type mice treated with placebo, FIG. 1.
Text: as §1
In order to determine the effects of angiotensin (1-7) peptides, here TXA127, on the normal course of disease development, both wild-type and Marfan mice were each separated into two groups once the mice reached 2 months of age. In each of the wild-type mice and Marfan mice, the placebo control group received daily subcutaneous saline injections for 60 days, while the TXA127 group received daily subcutaneous injections of TXA127 at a dose of 500 μg/kg/day for 60 days.
The primary endpoint of this study was degree of aortic growth observed over the 60 day treatment period, as measured by in vivo echocardiography. A baseline echocardiogram was performed just prior to the beginning of the treatment period and then again just prior to sacrifice. After the 60 day treatment period, mice were sacrificed and tissue samples were taken for histological and other analysis.

Consider “Asp^1-Arg^2-Val^3-Tyr^4-Ile^5-His^6-Pro^7 (DRVYIHP) [TXA127]”, for which the “degree of aortic root growth” value in assay [1] is listed as “highly significant reduction; also recorded: essentially eliminated”. The aortic root growth result in the assay with wild-type mice is recorded as “no statistically significant effect”.
